Assay results as given in US20210352899A1, “COMPOSITIONS COMPRISING PYRIDINE CARBOXYLATE HERBICIDES AND FATTY ACID AND LIPID SYNTHESIS INHIBITOR HERBICIDES” (Corteva Agriscience LLC, priority 2018, published 2021).

Legend:
Assay type in all cases: in vivo
[1] = test system: Salsola kali (Russian thistle); experiment: Greenhouse postemergence herbicidal effect, SASKR
Text: (§1) Seeds of the desired test plant species were planted in a 90:10% v/v (volume/volume) mixture of PRO-MIX® BX (Premier Tech Horticulture, Quakertown, Pa., USA) and PROFILE® GREENS GRADE™ (Profile Products LLC, Buffalo Grove, Ill., USA) planting mixture, which typically has a pH of 5.2 to 6.2 and an organic matter content of at least 50 percent, in plastic pots with a surface area of 103.2 square centimeters (cm^2). In some aspects, to help ensure good germination and healthy plants, a fungicide treatment and/or other chemical or physical treatment was applied. The plants were grown for 7-36 days (d) in a greenhouse with an approximate 14-hour (h) photoperiod which was maintained at about 23° C. during the day and 22° C. during the night. Nutrients and water were added on a regular basis and supplemental lighting was provided with overhead metal halide 1000-Watt lamps as necessary. The plants were employed for testing when they reached the second or third true leaf stage.
(§2) Emulsifiable concentrates of each pyridine carboxylate herbicide (Compound A or Compound B) were prepared at 100 grams acid equivalent per liter (g ae/L). The emulsifiable concentrates also included a safener, cloquintocet-mexyl, at 120 grams active ingredient per liter (g ai/L). An aliquot of each emulsifiable concentrate was placed in a 25 mL glass vial and diluted with an aqueous mixture of 1.25% (v/v) ACTIROB® B esterified rapeseed oil (Bayer Crop Science, Research Triangle Park, N.C., USA) or MSO® Concentrate with LECI-TECH® methylated soybean oil (Loveland Products, Loveland, Colo., USA) to obtain concentrated stock solutions at the highest application rate for each herbicide, based upon a 12 milliliter (mL) application volume at a rate of 187 liters per hectare (L/ha). The concentrated stock solutions were further diluted with an aqueous mixture of 1.25% v/v ACTIROB® B or MSO® Concentrate with LECI-TECH® to obtain stock solutions at reduced application rates for each herbicide. Spray solutions of the herbicide combinations (Compound A or Compound B plus the FA/LSI herbicide) were prepared by adding weighed amounts or aliquots of the FA/LSI herbicide to the stock solutions of Compound A or Compound B to form 12-mL spray solutions in two-way combinations.
(§3) The spray solutions were applied to the plant material with an overhead Mandel track sprayer equipped with 8002E nozzles calibrated to deliver 187 L/ha over an application area of 0.503 square meters (m^2) at a spray height of 18 inches (43 centimeters (cm)) above the average plant canopy. Control plants were sprayed in the same manner with the solvent blank. All pyridine carboxylate herbicide (component a) application rates are given as “g ae/ha” and all FA/LSI herbicide (component b) application rates are given as “g ai/ha.”
(§4) The treated plants and control plants were placed in a greenhouse as described above and watered by sub-irrigation to prevent wash-off of the test compounds. After 20-22 d, the condition of the test plants as compared with that of the control plants was determined visually and scored on a scale of 0 to 100 percent where 0 corresponds to no injury and 100 corresponds to complete kill.

[2] = test system: Matricaria chamomilla (wild chamomile); experiment: Greenhouse postemergence herbicidal effect, MATCH
Text: as §1, §2, §3, §4

[3] = test system: Polygonum convolvulus (wild buckwheat); experiment: Greenhouse postemergence herbicidal effect, POLCO
Text: as §1, §2, §3, §4

[4] = test system: Brassica napus (spring rape); experiment: Greenhouse postemergence herbicidal effect, BRSNN
Text: as §1, §2, §3, §4

[5] = test system: Kochia scoparia (kochia); experiment: Greenhouse postemergence herbicidal effect, KCHSC
Text: as §1, §2, §3, §4

[6] = test system: Sinapis arvensis (wild mustard); experiment: Greenhouse postemergence herbicidal effect, SINAR
Text: as §1, §2, §3, §4

[7] = test system: Chenopodium album L. (common lambsquarters); experiment: Greenhouse postemergence herbicidal effect, CHEAL
Text: as §1, §2, §3, §4

[8] = test system: Amaranthus retroflexus (pigweed); experiment: Greenhouse postemergence herbicidal effect, AMARE
Text: as §1, §2, §3, §4

[9] = test system: Cirsium arvense (Canada thistle); experiment: Greenhouse postemergence herbicidal effect, CIRAR
Text: as §1, §2, §3, §4

[10] = test system: Setaria faberi (giant foxtail); experiment: Greenhouse postemergence herbicidal effect, SETFA
Text: as §1
(§5) Emulsifiable concentrates of each pyridine carboxylate herbicide (Compound A or Compound B) were prepared at 100 grams acid equivalent per liter (g ae/L). The emulsifiable concentrates also included a safener, cloquintocet-mexyl, at 120 grams active ingredient per liter (g ai/L). […]
as §4

[11] = test system: Triticum aestivum (spring wheat); experiment: Greenhouse postemergence crop phytotoxicity, TRZAS
Text: as §1, §2, §3, §4

[12] = test system: Stellaria media (chickweed); experiment: Greenhouse postemergence herbicidal effect, STEME
Text: as §1, §5, §4

[13] = test system: Viola tricolor (wild pansy); experiment: Greenhouse postemergence herbicidal effect, VIOTR
Text: as §1, §5, §4

[14] = test system: Glycine max (soybean); experiment: Greenhouse postemergence herbicidal effect, GLXMA
Text: as §1, §5, §4

[15] = test system: Lolium multiflorum (Italian ryegrass); experiment: Greenhouse postemergence herbicidal effect, LOLMU
Text: as §1, §5, §4

[16] = test system: Echinochloa crus-galli (barnyard grass); experiment: Greenhouse postemergence herbicidal effect, ECHCG
Text: as §1, §5, §4

[17] = test system: Hordeum vulgare (spring barley); experiment: Greenhouse postemergence crop phytotoxicity, HORVS
Text: as §1, §2, §3, §4

[18] = test system: Digitaria sanguinalis (large crabgrass); experiment: Greenhouse postemergence herbicidal effect, DIGSA
Text: as §1, §5, §4

[19] = Compound A 0, Benfuresate 150 g/ha
[20] = Compound A 7.5 g/ha, Benfuresate 0
[21] = Compound A 7.5 g/ha, Esprocarb 0
[22] = Compound A 7.5 g/ha, Thiobencarb 0
[23] = Compound A 10 g/ha, Benfuresate 0
[24] = Compound A 10 g/ha, Esprocarb 0
[25] = Compound A 10 g/ha, Thiobencarb 0
[26] = Compound A 7.5 g/ha, Prosulfocarb 0
[27] = Compound A 10 g/ha, Prosulfocarb 0
[28] = Compound A 0, Esprocarb 420 g/ha
[29] = Compound A 0, Prosulfocarb 250 g/ha
[30] = Compound A 0, Thiobencarb 1120 g/ha

SMILES: CCS(=O)(=O)Oc1ccc2c(c1)C(C)(C)CO2 [Benfuresate, benfuresate, reference compound]
- % visual injury, Obs [1, 19]: 0%
- % visual injury, Obs [2, 19]: 0%
- % visual injury, Obs [3, 19]: 0%
- % visual injury, Obs [4, 19]: 5%
- % visual injury, Obs [5, 19]: 0%
- % visual injury, Obs [6, 19]: 0%
- % visual injury, Obs [7, 19]: 0%
- % visual injury, Obs [8, 19]: 10%

SMILES: N#CCOC(=O)c1nc(-c2ccc3cc[nH]c3c2F)c(F)c(N)c1Cl [Compound A, cyanomethyl 4-amino-3-chloro-5-fluoro-6-(7-fluoro-1H-indol-6-yl)pyridine-2-carboxylate]
- % visual injury, Obs [1, 20]: 45%
- % visual injury, Obs [1, 21]: 38%
- % visual injury, Obs [1, 22]: 45%
- % visual injury, Obs [1, 23]: 60%
- % visual injury, Obs [1, 24]: 63%
- % visual injury, Obs [1, 25]: 60%
- % visual injury, Obs [2, 20]: 13%
- % visual injury, Obs [2, 21]: 0%
- % visual injury, Obs [2, 22]: 13%
- % visual injury, Obs [2, 23]: 15%
- % visual injury, Obs [2, 24]: 33%
- % visual injury, Obs [2, 25]: 15%
- % visual injury, Obs [9, 21]: 10%
- % visual injury, Obs [9, 26]: 23%
- % visual injury, Obs [9, 24]: 23%
- % visual injury, Obs [9, 27]: 20%
- % visual injury, Obs [3, 20]: 70%
- % visual injury, Obs [3, 26]: 75%
- % visual injury, Obs [3, 22]: 70%
- % visual injury, Obs [3, 23]: 78%
- % visual injury, Obs [3, 27]: 70%
- % visual injury, Obs [3, 25]: 78%
- % visual injury, Obs [10, 26]: 70%
- % visual injury, Obs [10, 27]: 70%
- % visual injury, Obs [11, 20]: 0%
- % visual injury, Obs [11, 21]: 0%
- % visual injury, Obs [11, 22]: 0%
- % visual injury, Obs [11, 23]: 0%
- % visual injury, Obs [11, 24]: 0%
- % visual injury, Obs [11, 25]: 0%
- % visual injury, Obs [12, 26]: 100%
- % visual injury, Obs [12, 27]: 97%
- % visual injury, Obs [4, 20]: 55%
- % visual injury, Obs [4, 21]: 55%
- % visual injury, Obs [4, 26]: 73%
- % visual injury, Obs [4, 22]: 55%
- % visual injury, Obs [4, 23]: 60%
- % visual injury, Obs [4, 24]: 70%
- % visual injury, Obs [4, 27]: 83%
- % visual injury, Obs [4, 25]: 60%
- % visual injury, Obs [13, 26]: 10%
- % visual injury, Obs [13, 27]: 18%
- % visual injury, Obs [14, 26]: 93%
- % visual injury, Obs [14, 27]: 95%
- % visual injury, Obs [5, 20]: 50%
- % visual injury, Obs [5, 21]: 50%
- % visual injury, Obs [5, 26]: 60%
- % visual injury, Obs [5, 22]: 50%
- % visual injury, Obs [5, 23]: 58%
- % visual injury, Obs [5, 24]: 55%
- % visual injury, Obs [5, 27]: 65%
- % visual injury, Obs [5, 25]: 58%
- % visual injury, Obs [6, 20]: 88%
- % visual injury, Obs [6, 21]: 85%
- % visual injury, Obs [6, 22]: 88%
- % visual injury, Obs [6, 23]: 92%
- % visual injury, Obs [6, 24]: 90%
- % visual injury, Obs [6, 25]: 92%
- % visual injury, Obs [15, 26]: 0%
- % visual injury, Obs [15, 27]: 0%
- % visual injury, Obs [16, 26]: 73%
- % visual injury, Obs [16, 27]: 78%
- % visual injury, Obs [7, 20]: 70%
- % visual injury, Obs [7, 21]: 60%
- % visual injury, Obs [7, 26]: 97%
- % visual injury, Obs [7, 22]: 70%
- % visual injury, Obs [7, 23]: 83%
- % visual injury, Obs [7, 24]: 90%
- % visual injury, Obs [7, 27]: 93%
- % visual injury, Obs [7, 25]: 83%
- % visual injury, Obs [8, 20]: 100%
- % visual injury, Obs [8, 21]: 70%
- % visual injury, Obs [8, 22]: 100%
- % visual injury, Obs [8, 23]: 100%
- % visual injury, Obs [8, 24]: 98%
- % visual injury, Obs [8, 25]: 100%
- % visual injury, Obs [17, 20]: 8%
- % visual injury, Obs [17, 21]: 0%
- % visual injury, Obs [17, 22]: 8%
- % visual injury, Obs [17, 23]: 0%
- % visual injury, Obs [17, 24]: 0%
- % visual injury, Obs [17, 25]: 0%
- % visual injury, Obs [18, 26]: 45%
- % visual injury, Obs [18, 27]: 25%

SMILES: CCN(C(=O)SCc1ccccc1)C(C)C(C)C (stereo not drawn) [Esprocarb, esprocarb, reference compound]
- % visual injury, Obs [1, 28]: 0%
- % visual injury, Obs [2, 28]: 5%
- % visual injury, Obs [9, 28]: 0%
- % visual injury, Obs [4, 28]: 0%
- % visual injury, Obs [5, 28]: 0%
- % visual injury, Obs [6, 28]: 0%
- % visual injury, Obs [7, 28]: 0%
- % visual injury, Obs [8, 28]: 15%

SMILES: CCCN(CCC)C(=O)SCc1ccccc1 [Prosulfocarb, prosulfocarb, reference compound]
- % visual injury, Obs [9, 29]: 0%
- % visual injury, Obs [3, 29]: 0%
- % visual injury, Obs [10, 29]: 0%
- % visual injury, Obs [12, 29]: 0%
- % visual injury, Obs [4, 29]: 0%
- % visual injury, Obs [13, 29]: 0%
- % visual injury, Obs [14, 29]: 0%
- % visual injury, Obs [5, 29]: 0%
- % visual injury, Obs [15, 29]: 0%
- % visual injury, Obs [16, 29]: 0%
- % visual injury, Obs [7, 29]: 0%
- % visual injury, Obs [18, 29]: 0%

SMILES: CCN(CC)C(=O)SCc1ccc(Cl)cc1 [Thiobencarb, thiobencarb, reference compound]
- % visual injury, Obs [1, 30]: 0%
- % visual injury, Obs [2, 30]: 15%
- % visual injury, Obs [3, 30]: 0%
- % visual injury, Obs [4, 30]: 10%
- % visual injury, Obs [5, 30]: 0%
- % visual injury, Obs [6, 30]: 5%
- % visual injury, Obs [7, 30]: 0%
- % visual injury, Obs [8, 30]: 10%
